# Assay results reported in US4582639A, “Antitumor antibiotic compound” (priority 1984, dated 1986).
# Bridge positions count the residues as written; N and C are the ends. Square brackets hold non-standard residues; d marks the D form. Peptide text beside a SMILES is read from it. I, II: the chains in the order shown. * marks the point of attachment. Quinaldoyl(3-OH) = O=C(c1nc2ccccc2cc1O)*; NMeV = CN[CH](C(=O)O)C(C)C; Pip = O=C(O)[CH]1CCCCN1; Sar = CNCC(=O)O
# Columns and labels:
# Strep. faecalis A9611 = test: serial two-fold agar dilution, MIC; format: cell-based, Streptococcus faecalis; settings: Enterococcus faecalis, read-out: Minimum Inhibitory Concentration (MIC)
# Protocol: (§1) The antibacterial activities of sandramycin were determined by a serial two-fold agar dilution method. The results are shown in Table 5 in comparison with the activities of luzopeptin A and echinomycin.
# [1] = system: B. subtilis (Rec. -) A22509-2-2; test: serial two-fold agar dilution, MIC; format: cell-based; settings: Bacillus subtilis; B. subtilis (Rec. -) A22509-2-2, agar dilution; read-out: Minimum Inhibitory Concentration (MIC)
# Protocol: as §1
# E. coli A15119 = test: serial two-fold agar dilution, MIC; format: cell-based; settings: Escherichia coli, read-out: Minimum Inhibitory Concentration (MIC)
# Protocol: as §1
# [2] = system: E. coli (actinomycin sensitive) A21780 (AS-19); test: serial two-fold agar dilution, MIC; format: cell-based; settings: Escherichia coli, read-out: Minimum Inhibitory Concentration (MIC)
# Protocol: as §1
# [3] = system: B. subtilis (Rec. +) A22508-2; test: serial two-fold agar dilution, MIC; format: cell-based; settings: Bacillus subtilis; B. subtilis (Rec. +) A22508-2, agar dilution; read-out: Minimum Inhibitory Concentration (MIC)
# Protocol: as §1
# [4] = system: gram-positive organisms such as Bacillus subtilis and Staphylococcus aureus as well as Streptococcus faecalis; test: serial two-fold agar dilution, antibacterial activity in words; format: cell-based
# Protocol: as §1
# P-388 leukemia = test: transplantable mouse tumor P-388 leukemia; format: in vivo, mouse (CDF1 female mice)
# Protocol: The methodology used generally followed the protocols of the National Cancer Institute [Cancer Chemotherapy Rep. Part 3, 3, 1-103 (1972)]. The essential experimental details are given at the bottom of Table 6. Two different dose regimens were tested: single dose on day 1 and daily for 5 days. With both schedules, the optimum dose appears to be about 0.2 mg/kg/injection.
# Tumor inoculum: 10^6 ascites cells implanted i.p.
# Evaluation: MST=median survival time
# Effect: % T/C≥(MST treated/MST control)×100
# Criteria: % T/C=125 considered significant antitumor activity
# AWC: average weight change (treated-control) in grams (on day 4)
# [5] = system: S. aureus (echinomycin resistant) A9628; test: microbe, parasite or virus in culture; format: cell-based; settings: Staphylococcus aureus, read-out: Minimum Inhibitory Concentration (MIC)
# Protocol: The antibacterial activities of sandramycin were determined by a serial two-fold agar dilution method.
structure (smiles),measurement,setting,value
"CC(C)C1C(=O)OCC(NC(=O)c2nc3ccccc3cc2O)C(=O)N2CCCCC2C(=O)NCC(=O)N(C)CC(=O)N(C)C(C(C)C)C(=O)OCC(NC(=O)c2nc3ccccc3cc2O)C(=O)N2CCCCC2C(=O)NCC(=O)N(C)CC(=O)N1C (centres unmarked) [Sandramycin] (I: {Quinaldoyl(3-OH)}-S[Pip]G[Sar][NMeV] / II: {Quinaldoyl(3-OH)}-S[Pip]G[Sar][NMeV]; ester I:1-II:C, I:C-II:1; configuration not given here)",MIC,Strep. faecalis A9611,0.024 µg/mL
same,MIC,[1],0.012 µg/mL
same,MIC,E. coli A15119,12.5 µg/mL
same,MIC,[2],12.5 µg/mL
same,MIC,[3],0.024 µg/mL
same,antibacterial activity,[4],strongly inhibitory
same,optimum dose,"P-388 leukemia; IP, both schedules (single dose on day 1 and daily for 5 days)",about 0.2 mg/kg/injection
same,AWC Day 4,"P-388 leukemia; d. 1, IP, 0.025 mg/kg/inj.",-0.2 gm
same,MST,"P-388 leukemia; d. 1, IP, 0.025 mg/kg/inj.",9.5 days
same,MST % T/C,"P-388 leukemia; d. 1, IP, 0.025 mg/kg/inj.",106%
same,Survivors Day 5,"P-388 leukemia; d. 1, IP, 0.025 mg/kg/inj.",6/6
same,AWC Day 4,"P-388 leukemia; d. 1, IP, 0.05 mg/kg/inj.",-0.6 gm
same,MST,"P-388 leukemia; d. 1, IP, 0.05 mg/kg/inj.",10.0 days
same,MST % T/C,"P-388 leukemia; d. 1, IP, 0.05 mg/kg/inj.",111%
same,Survivors Day 5,"P-388 leukemia; d. 1, IP, 0.05 mg/kg/inj.",6/6
same,AWC Day 4,"P-388 leukemia; d. 1, IP, 0.1 mg/kg/inj.",-0.9 gm
same,MST,"P-388 leukemia; d. 1, IP, 0.1 mg/kg/inj.",11.0 days
same,MST % T/C,"P-388 leukemia; d. 1, IP, 0.1 mg/kg/inj.",122%
same,Survivors Day 5,"P-388 leukemia; d. 1, IP, 0.1 mg/kg/inj.",6/6
same,AWC Day 4,"P-388 leukemia; d. 1, IP, 0.2 mg/kg/inj.",-1.4 gm
same,MST,"P-388 leukemia; d. 1, IP, 0.2 mg/kg/inj.",14.5 days
same,MST % T/C,"P-388 leukemia; d. 1, IP, 0.2 mg/kg/inj.",161%
same,Survivors Day 5,"P-388 leukemia; d. 1, IP, 0.2 mg/kg/inj.",6/6
same,AWC Day 4,"P-388 leukemia; d. 1, IP, 0.4 mg/kg/inj.",-0.7 gm
same,MST,"P-388 leukemia; d. 1, IP, 0.4 mg/kg/inj.",11.0 days
same,MST % T/C,"P-388 leukemia; d. 1, IP, 0.4 mg/kg/inj.",122%
same,Survivors Day 5,"P-388 leukemia; d. 1, IP, 0.4 mg/kg/inj.",6/6
same,AWC Day 4,"P-388 leukemia; d. 1, IP, 0.8 mg/kg/inj.",-1.6 gm
same,MST,"P-388 leukemia; d. 1, IP, 0.8 mg/kg/inj.",10.0 days
same,MST % T/C,"P-388 leukemia; d. 1, IP, 0.8 mg/kg/inj.",111%
same,Survivors Day 5,"P-388 leukemia; d. 1, IP, 0.8 mg/kg/inj.",6/6
same,AWC Day 4,"P-388 leukemia; d. 1, IP, 1.6 mg/kg/inj.",-1.3 gm
same,MST,"P-388 leukemia; d. 1, IP, 1.6 mg/kg/inj.",11.5 days
same,MST % T/C,"P-388 leukemia; d. 1, IP, 1.6 mg/kg/inj.",128%
same,Survivors Day 5,"P-388 leukemia; d. 1, IP, 1.6 mg/kg/inj.",6/6
same,AWC Day 4,"P-388 leukemia; d. 1, IP, 3.2 mg/kg/inj.",-2.8 gm
same,MST,"P-388 leukemia; d. 1, IP, 3.2 mg/kg/inj.",Toxic
same,MST % T/C,"P-388 leukemia; d. 1, IP, 3.2 mg/kg/inj.",Toxic
same,Survivors Day 5,"P-388 leukemia; d. 1, IP, 3.2 mg/kg/inj.",0/6
same,AWC Day 4,"P-388 leukemia; d. 1→5, IP, 0.0125 mg/kg/inj.",-0.9 gm
same,MST,"P-388 leukemia; d. 1→5, IP, 0.0125 mg/kg/inj.",10.5 days
same,MST % T/C,"P-388 leukemia; d. 1→5, IP, 0.0125 mg/kg/inj.",117%
same,AWC Day 4,"P-388 leukemia; d. 1→5, IP, 0.025 mg/kg/inj.",-1.4 gm
same,MST,"P-388 leukemia; d. 1→5, IP, 0.025 mg/kg/inj.",10.0 days
same,MST % T/C,"P-388 leukemia; d. 1→5, IP, 0.025 mg/kg/inj.",111%
same,Survivors Day 5,"P-388 leukemia; d. 1→5, IP, 0.025 mg/kg/inj.",5/5
same,AWC Day 4,"P-388 leukemia; d. 1→5, IP, 0.05 mg/kg/inj.",-1.8 gm
same,MST,"P-388 leukemia; d. 1→5, IP, 0.05 mg/kg/inj.",8.5 days
same,MST % T/C,"P-388 leukemia; d. 1→5, IP, 0.05 mg/kg/inj.",94%
same,Survivors Day 5,"P-388 leukemia; d. 1→5, IP, 0.05 mg/kg/inj.",6/6
same,AWC Day 4,"P-388 leukemia; d. 1→5, IP, 0.1 mg/kg/inj.",-0.8 gm
same,MST,"P-388 leukemia; d. 1→5, IP, 0.1 mg/kg/inj.",11.5 days
same,MST % T/C,"P-388 leukemia; d. 1→5, IP, 0.1 mg/kg/inj.",128%
same,Survivors Day 5,"P-388 leukemia; d. 1→5, IP, 0.1 mg/kg/inj.",6/6
same,AWC Day 4,"P-388 leukemia; d. 1→5, IP, 0.2 mg/kg/inj.",-1.7 gm
same,MST,"P-388 leukemia; d. 1→5, IP, 0.2 mg/kg/inj.",12.0 days
same,MST % T/C,"P-388 leukemia; d. 1→5, IP, 0.2 mg/kg/inj.",133%
same,Survivors Day 5,"P-388 leukemia; d. 1→5, IP, 0.2 mg/kg/inj.",5/6
same,AWC Day 4,"P-388 leukemia; d. 1→5, IP, 0.4 mg/kg/inj.",-1.3 gm
same,MST,"P-388 leukemia; d. 1→5, IP, 0.4 mg/kg/inj.",11.0 days
same,MST % T/C,"P-388 leukemia; d. 1→5, IP, 0.4 mg/kg/inj.",122%
same,Survivors Day 5,"P-388 leukemia; d. 1→5, IP, 0.4 mg/kg/inj.",6/6
same,AWC Day 4,"P-388 leukemia; d. 1→5, IP, 0.8 mg/kg/inj.",-1.4 gm
same,MST,"P-388 leukemia; d. 1→5, IP, 0.8 mg/kg/inj.",6.0 days
same,MST % T/C,"P-388 leukemia; d. 1→5, IP, 0.8 mg/kg/inj.",67%
same,Survivors Day 5,"P-388 leukemia; d. 1→5, IP, 0.8 mg/kg/inj.",5/6
same,AWC Day 4,"P-388 leukemia; d. 1→5, IP, 1.6 mg/kg/inj.",-1.7 gm
same,MST,"P-388 leukemia; d. 1→5, IP, 1.6 mg/kg/inj.",Toxic
same,MST % T/C,"P-388 leukemia; d. 1→5, IP, 1.6 mg/kg/inj.",Toxic
same,Survivors Day 5,"P-388 leukemia; d. 1→5, IP, 1.6 mg/kg/inj.",2/6
same,MIC,[5],0.098 µg/mL
COc1ccc2nc(C(=O)N[C@@H]3COC(=O)[C@H](C(C)(C)O)N(C)C(=O)CN(C)C(=O)CNC(=O)C4C(OC(C)=O)CC=NN4C(=O)[C@H](NC(=O)c4nc5ccc(OC)cc5cc4O)COC(=O)[C@H](C(C)(C)O)N(C)C(=O)CN(C)C(=O)CNC(=O)C4C(OC(C)=O)CC=NN4C3=O)c(O)cc2c1 (some centres unmarked) [Luzopeptin A],MIC,Strep. faecalis A9611,0.195 µg/mL
same,MIC,[1],0.049 µg/mL
same,MIC,E. coli A15119,12.5 µg/mL
same,MIC,[2],12.5 µg/mL
same,MIC,[3],0.195 µg/mL
same,MIC,[5],0.098 µg/mL
CS[C@H]1SC[C@H]2C(=O)N(C)[C@@H](C(C)C)C(=O)OC[C@@H](NC(=O)c3cnc4ccccc4n3)C(=O)N[C@@H](C)C(=O)N(C)[C@@H]1C(=O)N(C)[C@@H](C(C)C)C(=O)OC[C@@H](NC(=O)c1cnc3ccccc3n1)C(=O)N[C@@H](C)C(=O)N2C [Echinomycin],MIC,Strep. faecalis A9611,0.012 µg/mL
same,MIC,[1],< 0.003 µg/mL
same,MIC,E. coli A15119,12.5 µg/mL
same,MIC,[2],6.25 µg/mL
same,MIC,[3],0.049 µg/mL
same,MIC,[5],0.78 µg/mL
